US20220226272A1, “DIETARY BUTYRATE AND ITS USES” (SOCIETE DES PRODUITS NESTLE S.A., priority 2019, published 2022)

How the values were obtained:
[1] = molecular target: T1, porcine pancreatic lipase (PPL) (Sus scrofa, UniProt P00591); assay: In vitro digestion in simulated intestinal fluid (SIF), pH-stat; assay type: in vitro ADME; details: SIF alone; 200 mg fat emulsion, pH 6.8, 37° C.
T1 construct: by porcine pancreatic lipase (from pancreatin); purchased Sigma-Aldrich P7585; host or cells: porcine pancreas extract (pancreatin)
T1 sequence (P00591 1-450): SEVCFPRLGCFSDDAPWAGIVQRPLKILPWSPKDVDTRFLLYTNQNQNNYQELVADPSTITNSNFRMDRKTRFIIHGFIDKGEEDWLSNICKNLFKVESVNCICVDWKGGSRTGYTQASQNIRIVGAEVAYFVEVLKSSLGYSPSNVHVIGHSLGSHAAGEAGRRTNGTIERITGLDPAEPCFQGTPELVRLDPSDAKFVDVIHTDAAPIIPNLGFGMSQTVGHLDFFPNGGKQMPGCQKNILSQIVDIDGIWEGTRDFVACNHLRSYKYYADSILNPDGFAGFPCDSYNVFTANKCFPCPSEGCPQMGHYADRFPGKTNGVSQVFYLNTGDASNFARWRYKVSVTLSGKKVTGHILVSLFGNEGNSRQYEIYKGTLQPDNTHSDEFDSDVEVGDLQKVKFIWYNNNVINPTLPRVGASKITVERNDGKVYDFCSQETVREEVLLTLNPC
T1 sequence (P02703 23-112 partner): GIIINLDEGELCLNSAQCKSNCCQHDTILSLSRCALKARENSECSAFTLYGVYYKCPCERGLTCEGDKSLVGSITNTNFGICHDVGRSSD
Method: (§1) The lipid emulsion (2 mL) containing 200 mg of fat was subjected to gastrointestinal in vitro lipolysis. […] For gastric digestion, the sample was incubated for 90 minutes with 8.5 mL of simulated gastric fluid (SGF), which consisted of 150 mM NaCl, 450 U/mL pepsin, 18 U/mL rabbit gastric lipase at 37° C. and a pH of 5.5.
The intestinal digestion step was performed in the pH stat where the pH was kept constant at 6.8 by addition of NaOH (0.05 M). […] The intestinal digestion step starts when the temperature reaches 37±0.5° C. The pH was adjusted to pH 6.8 and after incubation of two minutes at this pH and temperature, a pancreatin solution (5 mM tris, 150 mM NaCl at pH 6.8) was added. […] During the intestinal phase of digestion, the kinetics of digestion were followed using a pH-stat (TIM856, Radiometer) technique and expressed as titratable acid (rather than fatty acid) that was calculated by the equation: […]
(§2) Since the digestion of dietary lipids involves lipases of both gastric and intestinal origin, lipid digestibility was assessed using two digestion models i) simulated intestinal fluid (SIF) with porcine pancreatic lipase (PPL) and ii) sequential digestion in simulated gastric fluid (SGF) with rabbit gastric lipase (RGL) followed by simulated intestinal fluid (SIF) with porcine pancreatic lipase (PPL).

[2] = system: rabbit gastric lipase (RGL) followed by porcine pancreatic lipase (PPL); assay: Sequential in vitro digestion SGF followed by SIF, pH-stat; assay type: in vitro ADME
Method: as §1
The intestinal digestion step was performed in the pH stat where the pH was kept constant at 6.8 by addition of NaOH (0.05 M). […] The intestinal digestion step starts when the temperature reaches 37±0.5° C. The pH was adjusted to pH 6.8 and after incubation of two minutes at this pH and temperature, a pancreatin solution (5 mM tris, 150 mM NaCl at pH 6.8) was added. The final composition of the intestinal fluid was 10 mM CaCl2, 12 mM mixed bile salts, 0.75 mM phospholipid, 150 mM NaCl and 4 mM tris(hydroxymethyl)aminomethane buffer. The intestinal digestion step was carried out for 3 hours in a titration manager from Radiometer. During the intestinal phase of digestion, the kinetics of digestion were followed using a pH-stat (TIM856, Radiometer) technique and expressed as titratable acid (rather than fatty acid) that was calculated by the equation:
TA: Total titratable acid released, mmol; VNaOH: volume of NaOH used to titrate the released acid in 3 h, m L.
as §2

## CCCC(=O)OCC(COC(=O)CCC)OC(=O)CCC [tributyrin]
[1]
  initial rate of lipolysis: 223 ± 59 µmol/min
[2]; SGF-SIF sequential digestion, 200 mg fat emulsion
  initial lipolysis rate in SIF compartment: 44.1 ± 8.8 µmol/min
[2]; gastric compartment of the model
  hydrolysis in the stomach (gastric lipolysis), in words: extensive hydrolysis
[2]; indicated by decreased total fatty acid release in SIF after RGL pre-exposure
  lipolysis by gastric lipase: ~60%
